Results reported in patent publication US20170100489A1, “POLYETHYLENE GLYCOL-MODIFIED INTEGRIN BLOCKER HM-3 AND USE THEREOF” (HANMEI XU, priority 2012, published 2017).
Where two headings read alike, the source gives them in different places. Marks after values point to notes of the source that are not given here. Where no end group is shown, it is not given here. mPEG‑SC20k = methoxy polyethylene glycol-succinimidyl-carbonate, 20000 Da

Legend:
[1] = tested on: human bladder cancer HT1376 xenograft tumors; assay: Tumor growth inhibition, HT1376 xenograft; settings: for Rate of inhibiting tumors / Tumor weight: Once 3 days
Procedure: Human bladder cancer HT1376 cell lines in logarithmic growth phase were picked, and made into 5×10^7/ml cell suspension of under sterile conditions, and then 0.1 ml suspension was inoculated subcutaneously at the right armpit of nude mice. Tumor diameter was measured with a vernier caliper. The animals which had tumors with a size of 100-200 mm^3 were randomly divided into groups. The effect of polypeptide on anti-tumor was dynamically observed through the method of measuring tumor diameter. The times of measuring tumor diameter were once 2 days, and meantime, weighed mice. The mice in experimental group were infused polypeptide through tail vein. The mice in the placebo group were injected saline with the same volume, once 1 day; Taxol group: 10 mg/kg, once 1 week; Endostar group: 2.5 mg/kg, once 1 day; The groups of high, intermediate and low polypeptide: 6, 3, 1.5 mg/kg, respectively, once 1 day. After administration, all mice were sacrificed. Stripped the tumors and weighed.

[2] = tested on: human cervical cancer HeLa xenograft tumors; assay: Tumor growth inhibition, HeLa xenograft; settings: for Rate of inhibiting tumors / Tumor weight: Once 3 days
Procedure: Human cervical cancer HeLa cell lines in logarithmic growth phase were picked, and made into 5×10^7/ml cell suspension of under sterile conditions, and then 0.1 ml suspension was inoculated subcutaneously at the right armpit of nude mice. Tumor diameter was measured with a vernier caliper. The animals which had tumors with a size of 100-200 mm^3 were randomly divided into groups. The effect of polypeptide on anti-tumor was dynamically observed through the method of measuring tumor diameter. The times of measuring tumor diameter were once 2 days, and meantime, weighed mice. The mice in experimental group were infused polypeptide through tail vein. The mice in the placebo group were injected saline with the same volume, once 1 day; Taxol group: 10 mg/kg, once 1 week; Endostar group: 2.5 mg/kg, once 1 day; The groups of high, intermediate and low polypeptide: 6, 3, 1.5 mg/kg, respectively, once 1 day. After administration, all mice were sacrificed. Stripped the tumors and weighed.

[3] = tested on: human lung cancer H460 xenograft tumors; assay: Tumor growth inhibition, H460 xenograft; settings: for Rate of inhibiting tumors / Tumor weight: Once 3 days
Procedure: (§1) Picked the tumor tissue of vigorous growth and was cut into pieces of about 1.5 mm^3. Under sterile conditions, the tumor tissue was inoculated subcutaneously on the right of nude mice. Tumor diameter was measured with a vernier caliper. The animals which had tumors with a size of 100-200 mm^3 were randomly divided into groups. The effect of polypeptide on anti-tumor was dynamically observed through the method of measuring tumor diameter. The times of measuring tumor diameter were once 2 days, and meantime, weighed mice. The mice in experimental group were infused polypeptide through tail vein, once 3 days. The mice in the placebo group were injected saline with the same volume. Tumor volume formula:
(§2) a, b respectively represent the length and width. According to the result of measurement, calculate the relative tumor volume. Evaluation of antitumor activity is relative tumor proliferation rate T/C(%). The formula is as follows: T/C(%)^=TRTV/CRTV×100%
TRTV: Treatment group RTV; CRTV: negative control group RTV

[4] = rat, in vivo, iv
Procedure: SD rats were randomly divided into six groups with the same number for male and female. Take three groups were administered intravenously integrin antagonist polypeptide with a high dose of 52 mg/kg (equivalent to HM-3 4.2 mg/kg), an intermediate dose of 26 mg/kg (equivalent to HM-3 2.1 mg/kg), a low-dose of 13 mg/kg (equivalent to HM-3 1.05 mg/kg). The other 3 groups were injected HM-3 with a high dose of 4.2 mg/kg, an intermediate dose of 2.1 mg/kg, a low doses of 1.05 mg/kg. Collected whole blood 0.5 ml once from the orbital venous plexus after 0.5 h, 1 h, 2 h, 3 h, 6 h, 12 h, 24 h, 48 h, 72 h, 96 h, 108 h, 132 h of drug administration, and applied heparin to get the effect of anti-coagulation. 12000 rpm/2 min centrifuged plasma. Draw supernatant 200 μl and 80° C. preheated PBS (0.05 M pH7.4) buffer 600 μl and mixed. Bath in the 80° C. water for 30 min. Centrifuged 2 min at 12000 rpm, and collected the supernatant, and stored in the condition of −20° C. Dissolved at room temperature, measured integrin antagonist peptide plasma concentration by ELISA.

[5] = tested on: human endometrial cancer HHUA xenograft tumors; assay: Tumor growth inhibition, HHUA xenograft; settings: for Rate of inhibiting tumors / Tumor weight: Once 3 days
Procedure: Human endometrial cancer HHUA cell lines in logarithmic growth phase were picked, and made into 5×10^7/ml cell suspension of under sterile conditions, and then 0.1 ml suspension was inoculated subcutaneously at the right armpit of nude mice. Tumor diameter was measured with a vernier caliper. The animals which had tumors with a size of 100-200 mm^3 were randomly divided into groups. The effect of polypeptide on anti-tumor was dynamically observed through the method of measuring tumor diameter. The times of measuring tumor diameter were once 2 days, and meantime, weighed mice. The mice in experimental group were infused polypeptide through tail vein. The mice in the placebo group were injected saline with the same volume, once 1 day; Taxol group: 10 mg/kg, once 1 week; Endostar group: 2.5 mg/kg, once 1 day; The groups of high, intermediate and low polypeptide: 6, 3, 1.5 mg/kg, respectively, once 1 day. After administration, all mice were sacrificed. Stripped the tumors and weighed.

[6] = tested on: human kidney cancer A498 xenograft tumors; assay: Tumor growth inhibition, A498 xenograft; settings: for Rate of inhibiting tumors / Tumor weight: Once 3 days
Procedure: Human kidney cancer A498 cell lines in logarithmic growth phase were picked and made into 5×10^7/ml cell suspension of under sterile conditions, and then 0.1 ml suspension was inoculated subcutaneously at the right armpit of nude mice. Tumor diameter was measured with a vernier caliper. The animals which had tumors with a size of 100-200 mm^3 were randomly divided into groups. The effect of polypeptide on anti-tumor was dynamically observed through the method of measuring tumor diameter. The times of measuring tumor diameter were once 2 days, and meantime, weighed mice. The mice in experimental group were infused polypeptide through tail vein. The mice in the placebo group were injected saline with the same volume, once 1 day; Taxol group: 10 mg/kg, once 1 week; Endostar group: 2.5 mg/kg, once 1 day; The groups of high, intermediate and low polypeptide: 6, 3, 1.5 mg/kg, respectively, once 1 day. After administration, all mice were sacrificed. Stripped the tumors and weighed.

[7] = tested on: human ovarian cancer SK-OV-3 xenograft tumors; assay: Tumor growth inhibition, SK-OV-3 xenograft; settings: for Rate of inhibiting tumors / Tumor weight: Once 3 days
Procedure: Human ovarian cancer SK-OV-3 cell lines in logarithmic growth phase were picked, and made into 5×10^7/ml cell suspension of under sterile conditions, and then 0.1 ml suspension was inoculated subcutaneously at the right armpit of nude mice. Tumor diameter was measured with a vernier caliper. The animals which had tumors with a size of 100-200 mm^3 were randomly divided into groups. The effect of polypeptide on anti-tumor was dynamically observed through the method of measuring tumor diameter. The times of measuring tumor diameter were once 2 days, and meantime, weighed mice. The mice in experimental group were infused polypeptide through tail vein. The mice in the placebo group were injected saline with the same volume, once 1 day; Cisplatin group: 10 mg/kg, once 1 week; Endostar group: 2.5 mg/kg, once 1 day; The groups of high, intermediate and low polypeptide: 6, 3, 1.5 mg/kg, respectively, once 1 day. After administration, all mice were sacrificed. Stripped the tumors and weighed.

[8] = tested on: human thyroid cancer SW-579 xenograft tumors; assay: Tumor growth inhibition, SW-579 xenograft; settings: for Rate of inhibiting tumors / Tumor weight: Once 3 day
Procedure: as §1, §2
TRTV: Treatment Group RTV; CRTV: Negative Control Group RTV

[9] = high, 36.7 mg/kg, listed as polypeptide
[10] = intermediate, 18.75 mg/kg, listed as polypeptide
[11] = low, 9.38 mg/kg, listed as polypeptide

mPEG-SC20k-Ile-Val-Arg-Arg-Ala-Asp-Arg-Ala-Ala-Val-Pro-Gly-Gly-Gly-Gly-Arg-Gly-Asp ({mPEG‑SC20k}-IVRRADRAAVPGGGGRGD) [mPEG-SC20k-HM-3]
inhibition of tumor growth compared with negative control ([1]; 36.7 mg/kg, P<0.05): significant inhibition role
Rate of inhibiting tumors ([1]; high, 36.7 mg/kg): 63.42%*
Tumor weight ([1]; high, 36.7 mg/kg): 0.372 g
Rate of inhibiting tumors [1, 9]: 63.42%
Rate of inhibiting tumors ([1]; intermediate, 18.75 mg/kg): 54.24%
Tumor weight ([1]; intermediate, 18.75 mg/kg): 0.466 g
Rate of inhibiting tumors [1, 10]: 54.24%
Rate of inhibiting tumors ([1]; low, 9.38 mg/kg): 46.39%
Tumor weight ([1]; low, 9.38 mg/kg): 0.546 g
Rate of inhibiting tumors [1, 11]: 46.39%
inhibition of tumor growth compared with negative control ([2]; 36.7 mg/kg, P<0.05): significant inhibition role
Rate of inhibiting tumors ([2]; high, 36.7 mg/kg): 82.07%*
Tumor weight ([2]; high, 36.7 mg/kg): 0.222 g
Rate of inhibiting tumors [2, 9]: 82.07%
Rate of inhibiting tumors ([2]; intermediate, 18.75 mg/kg): 74.11%
Tumor weight ([2]; intermediate, 18.75 mg/kg): 0.320 g
Rate of inhibiting tumors [2, 10]: 74.11%
Rate of inhibiting tumors ([2]; low, 9.38 mg/kg): 63.32%
Tumor weight ([2]; low, 9.38 mg/kg): 0.453 g
Rate of inhibiting tumors [2, 11]: 63.32%
inhibition of tumor growth compared with negative control ([3]; 36.7 mg/kg, P<0.05): significant inhibition role
Rate of inhibiting tumors ([3]; high, 36.7 mg/kg): 66.45%*
Tumor weight ([3]; high, 36.7 mg/kg): 0.266 g
Rate of inhibiting tumors [3, 9]: 66.45%
Rate of inhibiting tumors ([3]; intermediate, 18.75 mg/kg): 55.37%
Tumor weight ([3]; intermediate, 18.75 mg/kg): 0.354 g
Rate of inhibiting tumors [3, 10]: 55.37%
Rate of inhibiting tumors ([3]; low, 9.38 mg/kg): 54.28%
Tumor weight ([3]; low, 9.38 mg/kg): 0.363 g
Rate of inhibiting tumors [3, 11]: 54.28%
t1/2β ([4]; both, SD): 20.13 h
t1/2p [4]: 20.13 h
t1/2β [4]: 20.13 h
inhibition of tumor growth compared with negative control ([5]; 36.7 mg/kg, P<0.05): significant inhibition role
Rate of inhibiting tumors ([5]; high, 36.7 mg/kg): 62.47%*
Tumor weight ([5]; high, 36.7 mg/kg): 0.453 g
Rate of inhibiting tumors [5, 9]: 62.47%
Rate of inhibiting tumors ([5]; intermediate, 18.75 mg/kg): 53.65%
Tumor weight ([5]; intermediate, 18.75 mg/kg): 0.560 g
Rate of inhibiting tumors [5, 10]: 53.65%
Rate of inhibiting tumors ([5]; low, 9.38 mg/kg): 51.38%
Tumor weight ([5]; low, 9.38 mg/kg): 0.587 g
Rate of inhibiting tumors [5, 11]: 51.38%
inhibition of tumor growth compared with negative control ([6]; 36.7 mg/kg, P<0.05): significant inhibition role
Rate of inhibiting tumors ([6]; high, 36.7 mg/kg): 55.11%*
Tumor weight ([6]; high, 36.7 mg/kg): 0.424 g
Rate of inhibiting tumors [6, 9]: 55.11%
Rate of inhibiting tumors ([6]; intermediate, 18.75 mg/kg): 46.95%
Tumor weight ([6]; intermediate, 18.75 mg/kg): 0.501 g
Rate of inhibiting tumors [6, 10]: 46.95%
Rate of inhibiting tumors ([6]; low, 9.38 mg/kg): 39.00%
Tumor weight ([6]; low, 9.38 mg/kg): 0.576 g
Rate of inhibiting tumors [6, 11]: 39.00%
inhibition of tumor growth compared with negative control ([7]; 36.7 mg/kg, P<0.05): significant inhibition role
Rate of inhibiting tumors ([7]; high, 36.7 mg/kg): 50.40%*
Tumor weight ([7]; high, 36.7 mg/kg): 0.627 g
Rate of inhibiting tumors [7, 9]: 50.40%
Rate of inhibiting tumors ([7]; intermediate, 18.75 mg/kg): 44.62%
Tumor weight ([7]; intermediate, 18.75 mg/kg): 0.700 g
Rate of inhibiting tumors [7, 10]: 44.62%
Rate of inhibiting tumors ([7]; low, 9.38 mg/kg): 42.33%
Tumor weight ([7]; low, 9.38 mg/kg): 0.730 g
Rate of inhibiting tumors [7, 11]: 42.33%
inhibition of tumor growth compared with negative control ([8]; 36.7 mg/kg, P<0.05): significant inhibition role
toxic and side effects ([8]; 36.7 mg/kg, compared with positive 5-Fu group): no obvious toxic and side effects
Rate of inhibiting tumors ([8]; high, 36.7 mg/kg): 67.63%*
Tumor weight ([8]; high, 36.7 mg/kg): 0.406 g
Rate of inhibiting tumors [8, 9]: 67.63%
Rate of inhibiting tumors ([8]; intermediate, 18.75 mg/kg): 60.56%
Tumor weight ([8]; intermediate, 18.75 mg/kg): 0.494 g
Rate of inhibiting tumors [8, 10]: 60.56%
Rate of inhibiting tumors ([8]; low, 9.38 mg/kg): 58.42%
Tumor weight ([8]; low, 9.38 mg/kg): 0.521 g
Rate of inhibiting tumors [8, 11]: 58.42%
